Laboratory results: ChEMBL document CHEMBL5653631, “A Potent and Selective ULK1 Inhibitor Suppresses Autophagy and Sensitizes Cancer Cells to Nutrient Stress” (iScience, 2018)
Each block holds one compound with its values, some of them ahead of it.

Key:
[1] = molecular target: T1, Serine/threonine-protein kinase TBK1 (Homo sapiens) (UniProt Q9UHD2); assay: Inhibition of human recombinant TBK1 at 500 nM in presence of ATP by radiometric assay relative to control
T1 sequence (whole entry): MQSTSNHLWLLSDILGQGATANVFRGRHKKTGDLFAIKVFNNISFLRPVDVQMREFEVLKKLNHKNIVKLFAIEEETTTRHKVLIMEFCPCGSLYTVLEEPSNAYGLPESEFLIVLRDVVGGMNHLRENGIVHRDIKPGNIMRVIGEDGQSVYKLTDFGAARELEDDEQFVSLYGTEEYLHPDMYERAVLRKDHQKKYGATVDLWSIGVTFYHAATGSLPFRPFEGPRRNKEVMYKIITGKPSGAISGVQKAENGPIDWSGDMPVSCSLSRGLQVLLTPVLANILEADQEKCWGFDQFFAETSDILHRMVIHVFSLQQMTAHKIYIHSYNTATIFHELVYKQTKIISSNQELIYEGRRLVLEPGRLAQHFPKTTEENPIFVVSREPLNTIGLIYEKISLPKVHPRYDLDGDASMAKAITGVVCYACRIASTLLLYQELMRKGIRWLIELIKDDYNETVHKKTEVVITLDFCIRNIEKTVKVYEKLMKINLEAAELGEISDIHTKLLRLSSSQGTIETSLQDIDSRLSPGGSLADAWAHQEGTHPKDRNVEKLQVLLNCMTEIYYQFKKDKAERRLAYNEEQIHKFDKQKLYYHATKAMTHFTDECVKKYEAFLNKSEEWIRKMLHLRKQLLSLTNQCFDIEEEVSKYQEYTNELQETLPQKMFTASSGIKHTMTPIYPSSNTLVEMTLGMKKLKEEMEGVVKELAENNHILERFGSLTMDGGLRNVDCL

[2] = molecular target: Cyclin-dependent kinase 5 (Homo sapiens) (UniProt Q00535); assay: Inhibition of human recombinant CDK5 at 500 nM related to control ULK1
[3] = molecular target: T2, Ephrin type-B receptor 1 (Homo sapiens) (UniProt P54762); assay: Inhibition of human recombinant EphB1 at 500 nM related to control ULK1
T2 sequence (whole entry): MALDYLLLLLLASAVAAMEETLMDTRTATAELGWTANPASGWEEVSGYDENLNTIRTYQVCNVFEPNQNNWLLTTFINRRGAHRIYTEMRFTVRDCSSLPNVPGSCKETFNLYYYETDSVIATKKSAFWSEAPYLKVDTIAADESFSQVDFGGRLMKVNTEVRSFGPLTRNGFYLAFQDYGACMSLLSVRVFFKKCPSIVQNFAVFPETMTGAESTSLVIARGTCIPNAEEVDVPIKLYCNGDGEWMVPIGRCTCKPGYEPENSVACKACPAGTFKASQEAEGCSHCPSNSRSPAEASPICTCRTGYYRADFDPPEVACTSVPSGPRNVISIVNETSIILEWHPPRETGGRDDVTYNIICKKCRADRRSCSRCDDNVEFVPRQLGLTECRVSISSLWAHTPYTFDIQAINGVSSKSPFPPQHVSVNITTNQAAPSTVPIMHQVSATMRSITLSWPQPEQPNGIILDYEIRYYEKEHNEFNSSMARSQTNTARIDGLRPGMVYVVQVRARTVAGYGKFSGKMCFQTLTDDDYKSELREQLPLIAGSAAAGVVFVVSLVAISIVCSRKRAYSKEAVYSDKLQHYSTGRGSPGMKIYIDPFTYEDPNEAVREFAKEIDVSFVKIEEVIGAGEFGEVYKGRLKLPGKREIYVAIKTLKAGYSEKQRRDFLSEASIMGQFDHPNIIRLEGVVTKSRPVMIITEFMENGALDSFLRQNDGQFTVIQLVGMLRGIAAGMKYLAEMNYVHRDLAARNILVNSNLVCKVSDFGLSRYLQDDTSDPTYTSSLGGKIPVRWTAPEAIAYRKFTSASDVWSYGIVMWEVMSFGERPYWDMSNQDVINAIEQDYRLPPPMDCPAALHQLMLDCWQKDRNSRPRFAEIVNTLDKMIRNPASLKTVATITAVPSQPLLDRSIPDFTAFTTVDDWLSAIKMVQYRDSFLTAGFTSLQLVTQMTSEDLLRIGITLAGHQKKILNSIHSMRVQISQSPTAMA

[4] = molecular target: Fibroblast growth factor receptor 4 (Homo sapiens) (UniProt P22455); assay: Inhibition of human recombinant FGFR4 at 15 nM in presence of ATP by radiometric assay relative to control
Homo sapiens = organism: Homo sapiens; assay: Inhibition of human recombinant KHS1 at 15 nM in presence of ATP by radiometric assay relative to control
[5] = molecular target: T3, Serine/threonine-protein kinase Sgk3 (Homo sapiens) (UniProt Q96BR1); assay: Inhibition of human recombinant SGK3 at 15 nM in presence of ATP by radiometric assay relative to control
T3 sequence (whole entry): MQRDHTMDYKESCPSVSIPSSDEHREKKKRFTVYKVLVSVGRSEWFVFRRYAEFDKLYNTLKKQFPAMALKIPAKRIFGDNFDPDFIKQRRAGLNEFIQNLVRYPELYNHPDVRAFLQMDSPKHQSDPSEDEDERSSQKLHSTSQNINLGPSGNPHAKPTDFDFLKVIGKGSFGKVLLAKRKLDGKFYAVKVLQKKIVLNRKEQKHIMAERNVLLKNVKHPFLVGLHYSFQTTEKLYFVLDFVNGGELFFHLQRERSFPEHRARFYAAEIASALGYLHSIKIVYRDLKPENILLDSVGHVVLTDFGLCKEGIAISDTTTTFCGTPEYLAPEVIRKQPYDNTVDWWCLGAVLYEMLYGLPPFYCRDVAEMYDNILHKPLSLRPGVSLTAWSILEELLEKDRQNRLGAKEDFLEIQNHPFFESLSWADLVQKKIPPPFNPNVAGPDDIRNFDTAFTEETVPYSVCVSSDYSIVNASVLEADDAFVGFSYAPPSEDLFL

[6] = molecular target: Homeodomain-interacting protein kinase 1 (Homo sapiens) (UniProt Q86Z02); assay: Inhibition of human recombinant HIPK1 at 15 nM related to control ULK1
[7] = molecular target: Serine/threonine-protein kinase 24 (Homo sapiens) (UniProt Q9Y6E0); assay: Inhibition of human recombinant MST3 at 15 nM related to control ULK1
[8] = molecular target: Dual specificity mitogen-activated protein kinase kinase 2 (Homo sapiens) (UniProt P36507); assay: Inhibition of human recombinant MAP2K2 at 40 nM in presence of ATP by radiometric assay relative to control
[9] = molecular target: Calcium/calmodulin-dependent protein kinase type 1G (Homo sapiens) (UniProt Q96NX5); assay: Inhibition of human recombinant CaMK1g at 40 nM related to control ULK1
[10] = molecular target: Calcium/calmodulin-dependent protein kinase type II subunit alpha (Homo sapiens) (UniProt Q9UQM7); assay: Inhibition of human recombinant CaMK2a at 40 nM related to control ULK1
Sequence of Calcium/calmodulin-dependent protein kinase type II subunit alpha (Homo sapiens) (Q9UQM7 whole entry): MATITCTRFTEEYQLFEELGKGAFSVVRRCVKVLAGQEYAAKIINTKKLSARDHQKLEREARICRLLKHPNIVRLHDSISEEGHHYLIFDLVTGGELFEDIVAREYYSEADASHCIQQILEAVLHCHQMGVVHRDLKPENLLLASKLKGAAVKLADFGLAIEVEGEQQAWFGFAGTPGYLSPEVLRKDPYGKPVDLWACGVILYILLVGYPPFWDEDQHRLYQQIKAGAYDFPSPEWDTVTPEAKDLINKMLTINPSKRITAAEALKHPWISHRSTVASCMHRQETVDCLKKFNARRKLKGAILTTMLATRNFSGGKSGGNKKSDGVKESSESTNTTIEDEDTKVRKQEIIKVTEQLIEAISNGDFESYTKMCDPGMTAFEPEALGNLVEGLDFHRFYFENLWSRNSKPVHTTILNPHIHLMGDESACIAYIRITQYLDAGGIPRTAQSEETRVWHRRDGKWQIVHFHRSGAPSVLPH

Sequence of Dual specificity mitogen-activated protein kinase kinase 2 (Homo sapiens) (P36507 whole entry): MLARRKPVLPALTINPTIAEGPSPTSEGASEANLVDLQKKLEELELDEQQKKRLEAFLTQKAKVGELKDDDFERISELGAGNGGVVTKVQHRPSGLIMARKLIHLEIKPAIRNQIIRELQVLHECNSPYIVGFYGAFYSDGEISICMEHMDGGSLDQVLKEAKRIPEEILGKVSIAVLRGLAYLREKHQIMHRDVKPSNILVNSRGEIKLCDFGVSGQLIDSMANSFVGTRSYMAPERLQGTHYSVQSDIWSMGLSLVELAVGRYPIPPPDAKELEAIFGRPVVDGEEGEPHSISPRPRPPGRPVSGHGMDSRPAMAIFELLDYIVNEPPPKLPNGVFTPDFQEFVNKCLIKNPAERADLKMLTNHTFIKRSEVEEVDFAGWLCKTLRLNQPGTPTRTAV
Sequence of Calcium/calmodulin-dependent protein kinase type 1G (Homo sapiens) (Q96NX5 whole entry): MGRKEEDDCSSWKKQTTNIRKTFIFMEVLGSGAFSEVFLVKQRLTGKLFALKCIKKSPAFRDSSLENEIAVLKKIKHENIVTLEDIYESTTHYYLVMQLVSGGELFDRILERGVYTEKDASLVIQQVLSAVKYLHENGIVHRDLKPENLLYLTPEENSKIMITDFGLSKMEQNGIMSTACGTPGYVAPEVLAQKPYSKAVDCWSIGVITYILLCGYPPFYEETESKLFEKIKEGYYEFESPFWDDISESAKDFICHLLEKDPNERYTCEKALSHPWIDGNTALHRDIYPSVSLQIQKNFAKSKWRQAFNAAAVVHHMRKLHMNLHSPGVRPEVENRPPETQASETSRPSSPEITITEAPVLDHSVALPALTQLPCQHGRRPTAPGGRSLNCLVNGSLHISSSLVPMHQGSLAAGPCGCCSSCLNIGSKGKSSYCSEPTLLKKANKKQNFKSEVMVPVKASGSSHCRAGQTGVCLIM
Sequence of Serine/threonine-protein kinase 24 (Homo sapiens) (Q9Y6E0 whole entry, looked up): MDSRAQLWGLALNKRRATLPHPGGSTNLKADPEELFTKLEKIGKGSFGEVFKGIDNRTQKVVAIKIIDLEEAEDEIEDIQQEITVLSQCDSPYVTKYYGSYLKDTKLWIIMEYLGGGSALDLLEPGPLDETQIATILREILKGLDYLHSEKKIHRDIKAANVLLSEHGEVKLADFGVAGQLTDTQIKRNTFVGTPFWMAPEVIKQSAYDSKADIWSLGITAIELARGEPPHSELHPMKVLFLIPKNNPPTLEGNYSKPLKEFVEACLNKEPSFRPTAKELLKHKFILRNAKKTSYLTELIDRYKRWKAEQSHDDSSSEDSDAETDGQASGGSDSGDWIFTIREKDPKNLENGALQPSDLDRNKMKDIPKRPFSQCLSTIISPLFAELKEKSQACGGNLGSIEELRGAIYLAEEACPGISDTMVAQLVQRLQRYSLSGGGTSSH
Sequence of Cyclin-dependent kinase 5 (Homo sapiens) (Q00535 whole entry, looked up): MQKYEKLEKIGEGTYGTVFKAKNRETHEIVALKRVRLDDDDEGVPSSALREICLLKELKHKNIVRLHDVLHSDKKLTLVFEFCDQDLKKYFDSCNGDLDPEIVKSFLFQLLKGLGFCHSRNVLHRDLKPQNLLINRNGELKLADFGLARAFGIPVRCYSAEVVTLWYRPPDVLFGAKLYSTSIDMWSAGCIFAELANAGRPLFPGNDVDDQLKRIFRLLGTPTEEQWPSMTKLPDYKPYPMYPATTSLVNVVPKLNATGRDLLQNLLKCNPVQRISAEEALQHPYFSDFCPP
Sequence of Fibroblast growth factor receptor 4 (Homo sapiens) (P22455 22-802 limits assumed): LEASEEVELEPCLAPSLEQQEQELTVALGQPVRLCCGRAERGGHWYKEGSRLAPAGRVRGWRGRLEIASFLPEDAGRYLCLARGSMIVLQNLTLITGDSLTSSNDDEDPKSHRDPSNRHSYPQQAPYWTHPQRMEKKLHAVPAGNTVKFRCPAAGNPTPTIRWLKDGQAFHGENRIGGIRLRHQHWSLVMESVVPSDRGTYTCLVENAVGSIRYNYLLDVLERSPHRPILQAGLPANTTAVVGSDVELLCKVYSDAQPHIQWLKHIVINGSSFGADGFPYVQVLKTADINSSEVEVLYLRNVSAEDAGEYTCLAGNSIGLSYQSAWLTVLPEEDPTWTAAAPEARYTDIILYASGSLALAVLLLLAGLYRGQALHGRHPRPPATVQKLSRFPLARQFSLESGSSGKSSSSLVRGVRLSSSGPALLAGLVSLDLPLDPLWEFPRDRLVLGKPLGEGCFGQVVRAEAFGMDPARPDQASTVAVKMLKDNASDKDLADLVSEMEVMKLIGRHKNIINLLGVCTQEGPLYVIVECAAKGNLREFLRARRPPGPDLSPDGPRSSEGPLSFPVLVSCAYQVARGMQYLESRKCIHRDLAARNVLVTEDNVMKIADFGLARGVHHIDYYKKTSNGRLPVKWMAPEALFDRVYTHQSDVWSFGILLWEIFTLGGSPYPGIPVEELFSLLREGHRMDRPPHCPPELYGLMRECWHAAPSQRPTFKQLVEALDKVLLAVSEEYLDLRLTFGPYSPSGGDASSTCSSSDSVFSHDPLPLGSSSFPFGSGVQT
Sequence of Homeodomain-interacting protein kinase 1 (Homo sapiens) (Q86Z02 whole entry, looked up): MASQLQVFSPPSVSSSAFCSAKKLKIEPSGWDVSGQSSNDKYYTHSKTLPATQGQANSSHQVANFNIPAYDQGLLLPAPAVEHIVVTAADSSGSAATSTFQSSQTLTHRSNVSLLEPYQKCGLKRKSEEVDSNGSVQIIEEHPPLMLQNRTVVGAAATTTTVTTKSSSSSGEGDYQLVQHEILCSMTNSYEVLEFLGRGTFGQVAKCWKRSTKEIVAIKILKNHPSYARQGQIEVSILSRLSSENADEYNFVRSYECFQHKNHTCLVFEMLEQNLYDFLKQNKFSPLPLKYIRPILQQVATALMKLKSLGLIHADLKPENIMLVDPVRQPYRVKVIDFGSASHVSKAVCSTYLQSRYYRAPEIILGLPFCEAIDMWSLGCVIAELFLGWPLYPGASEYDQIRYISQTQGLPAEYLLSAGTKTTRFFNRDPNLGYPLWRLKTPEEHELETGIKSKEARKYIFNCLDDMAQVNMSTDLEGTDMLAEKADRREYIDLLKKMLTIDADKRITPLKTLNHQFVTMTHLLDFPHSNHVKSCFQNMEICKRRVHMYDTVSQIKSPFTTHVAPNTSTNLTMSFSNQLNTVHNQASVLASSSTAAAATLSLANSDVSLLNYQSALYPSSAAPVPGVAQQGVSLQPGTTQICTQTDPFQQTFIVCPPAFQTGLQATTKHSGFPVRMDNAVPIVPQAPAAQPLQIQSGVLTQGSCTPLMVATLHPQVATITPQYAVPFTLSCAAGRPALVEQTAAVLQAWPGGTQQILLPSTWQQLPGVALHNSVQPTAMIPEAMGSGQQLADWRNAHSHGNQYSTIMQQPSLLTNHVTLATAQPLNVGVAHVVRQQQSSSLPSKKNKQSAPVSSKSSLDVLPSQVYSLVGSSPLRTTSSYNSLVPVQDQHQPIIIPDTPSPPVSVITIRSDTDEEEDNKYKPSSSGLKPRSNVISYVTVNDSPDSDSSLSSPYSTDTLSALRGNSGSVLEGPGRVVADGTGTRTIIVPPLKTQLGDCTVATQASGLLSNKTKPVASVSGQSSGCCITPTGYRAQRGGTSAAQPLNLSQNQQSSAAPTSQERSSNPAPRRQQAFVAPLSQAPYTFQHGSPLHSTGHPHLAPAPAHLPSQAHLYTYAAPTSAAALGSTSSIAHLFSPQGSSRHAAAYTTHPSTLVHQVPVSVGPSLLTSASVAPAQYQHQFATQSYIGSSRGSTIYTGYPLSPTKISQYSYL

inhibition [1]: 0% | fold change (FC) [2]: 0.77 | fold change (FC) [3]: 0.14
Structure (SMILES): CNC(=O)c1ccccc1Oc1nc(Nc2cc(OC)c(OC)c(OC)c2)ncc1Br

inhibition [4]: 0% | inhibition (Homo sapiens): 14% | inhibition [5]: 4% | fold change (FC) [6]: 0 | fold change (FC) [7]: 0
Structure (SMILES): CC(C)[C@H](NC(=O)c1cc(-c2cnn3cc(-c4ccc(OCCN5CCCCC5)cc4)cnc23)cs1)C(F)(F)F

inhibition [8]: 0% | fold change (FC) [9]: 0 | fold change (FC) [10]: 0
Structure (SMILES): O=C(N[C@@H](C1CC1)C(F)(F)F)c1cc(-c2cnn3cc(-c4ccc(F)cc4)cnc23)cs1
